Data: article PMC10804407, “Rombocin, a Short Stable Natural Nisin Variant, Displays Selective Antimicrobial Activity against Listeria monocytogenes and Employs a Dual Mode of Action to Kill Target Bacterial Strains” (ACS Synthetic Biology, 2024)
Converted amounts (≈) assume the structure as drawn.

Experiments:
L. lactis MG1363 [1] = format: cell-based, Lactococcus lactis; conditions: MG1363
Method: (§1) Each experiment was performed in triplicate.

L. monocytogenes LK132 = format: cell-based, Listeria monocytogenes; conditions: LK132
Method: as §1

[2] = tested on: L. monocytogenes LMG10470; format: cell-based, Listeria monocytogenes; conditions: LMG10470
Method: as §1

L. monocytogenes TT82E = format: cell-based, Listeria monocytogenes; conditions: TT82E
Method: as §1

S. aureus LMG10147 = format: cell-based, Staphylococcus aureus; conditions: LMG10147
Method: as §1

[3] = tested on: S. aureus LMG15975 (MRSA); format: cell-based, Staphylococcus aureus; conditions: LMG15975
Method: as §1

E. faecium LMG11423 = format: cell-based, Enterococcus faecium; conditions: LMG11423
Method: as §1

[4] = tested on: E. faecium LMG16003 (VRE); format: cell-based, Enterococcus faecium; conditions: LMG16003
Method: as §1

[5] = tested on: E. faecalis LMG16216 (VRE); format: cell-based, Enterococcus faecalis; conditions: LMG16216
Method: as §1

[6] = Spot-on-lawn assay, peptide-lipid II complex formation; format: binding, Lactococcus lactis; conditions: L. lactis MG1363, purified lipid II 300 μM, 2 μL at edge of halo, overnight 30 °C
Method: To evaluate the binding of peptide and lipid II or lipoteichoic acid (LTA), an overnight cultured L. lactis MG1363 was added to 0.8% GM17 (w/v, temperature 45 °C) at a final concentration of 0.1% (v/v), and then, the mixture was poured onto 10 mL plates. The binding of peptide and lipid II or LTA was further evaluated by spotting of purified lipid II (300 μM, 2 μL) or LTA (1 mg/mL, 2 μL) to the edge of the inhibition halo of antibiotics. Briefly, antimicrobials were loaded to the agar plate. After the antimicrobial solution drops had dried, lipid II or LTA was spotted to the edge of inhibition halo of antimicrobials. The plates were then incubated overnight at 30 °C after the drops had dried.

[7] = Growth curve-based lipid II/LTA binding assay; format: cell-based, Lactococcus lactis; conditions: L. lactis MG1363, 5 × MIC peptide, 2 µl lipid II, 6 hours, three replicates
Method: Screening the antibacterial activity of peptides by spot-on-lawn assay
To prepare the plates, an overnight culture of the strains was added to 0.8% LB agar or GM17agar (wt/vol) at 45 ℃ and mixed to a final concentration of 0.1% (vol/vol) before being poured onto the plates (10 ml each). Next, 5 µl of the precursor peptide and 1 µl of 1 mg/mL NisP were dropped onto the plates and left to dry before incubation. The plates were then incubated overnight at 37°C, except for L. lactis, which was incubated at 30°C.
Evaluation of (methyl)lanthionine formation
16 μL of phosphate-buffered saline (pH 7.4) was added to the samples followed by treatment with 2 μL of 5 mg/mL tris[2-carboxyethyl]phosphine for 30 min at room temperature. Next, 4.5 μL of 25 mg/mL N-ethylmaleimide was added to the samples, which were then incubated at room temperature for 2 h.
Subsequently, the samples were desalted using a C18 ZipTip (Millipore) according to the manufacturer’s instructions and subjected to MALDI-TOF MS analysis.
Growth curve and lipid II/LTA binding assay
Overnight cultures of L. lactis MG1363 were diluted to an OD 600 of 0.05 and added to a 96-well plate, which was incubated at 30°C. […] The growth curve was recorded over the following 6 hours using a microplate spectrophotometer under the same conditions, with three replicates used for each treatment.

L. lactis MG1363 [8] = experiment: Time-kill assay; format: cell-based, Lactococcus lactis; conditions: 5-fold MIC
Method: The bactericidal activity of nisin, nisin(1–22), and rombocin was evaluated according to a previously described procedure based on Guo et al.[38] Briefly, an overnight culture of L. lactis MG1363 was diluted 50-fold in GM17 medium and incubated at 30 °C. The bacteria were grown until reaching an optical density at 600 nm (OD600) of 0.5, at which point the cell concentration was adjusted to 5 × 10^5 CFU/mL. Subsequently, the bacteria were challenged with a 5-fold MIC of each peptide. A control sample of an untreated cell suspension was included. At specific time points, 50 μL aliquots were collected, and undiluted and 10-fold serially diluted suspensions were plated on GM17 agar. The plates were incubated overnight at 30 °C, and the resulting colonies were counted and calculated as colony-forming units per milliliter (CFU/mL). Both assays were performed in triplicate to ensure reproducibility.

L. lactis [9] = experiment: Potassium ion efflux assay (PBFI probe); format: cell-based, Lactococcus lactis; conditions: 5× MIC, 10 mM HEPES pH 7.2 with 0.5% glucose, 10 μM PBFI
Method: To perform the K^+ release assay, we used the K^+-specific fluorescent probe PBFI. L. lactis was cultured in GM17 until the OD600 reached 0.6, after which the cells were harvested (5000g, 5 min) and washed twice with 10 mM HEPES (pH 7.2) with 0.5% glucose. The cells were then resuspended in the same buffer containing 10 μM PBFI. Data were analyzed using a Varioskan LUX Multimode Microplate Reader; cells were excited at 346 nm, and the fluorescence emission was measured at 505 nm to establish a baseline signal before the addition of 5-fold MIC antibiotics, after which data were collected. Nisin was used as a positive control.

L. lactis [10] = experiment: Membrane potential determination (DiSC3(5) probe); format: cell-based, Lactococcus lactis; conditions: 5× MIC, 10 mM HEPES with 10 mM glucose pH 7.2, 2 μM DiSC3(5), 25 min
Method: To measure the membrane potential, the membrane potential-sensitive fluorescent dye DiSC3(5) was utilized. L. lactis was cultured to an OD600 of 0.8, pelleted at 5000g for 5 min, and washed twice in 10 mM HEPES with 10 mM glucose (pH 7.2). The cell density was adjusted to an OD600 of 0.2 and loaded with 2 μM DiSC3(5) dye, followed by 20 min of incubation in the dark to stabilize the probe fluorescence. Next, the cell suspension was added to a 96-well microplate and incubated for 5 min with 100 mM KCl. […] The fluorescence spectrometer’s excitation and emission wavelengths were adjusted to 622 and 670 nm, respectively. Three technical replicates were performed, and the representative example is shown.

For `C=C1NC(=O)[C@H]([C@@H](C)CC)NC(=O)C(NC(=O)C(=CC)NC(=O)[C@@H](N)[C@@H](C)CC)CSC[C@@H](C(=O)NC2C(=O)N[C@@H](C)C(=O)NCC(=O)N[C@H](C(=O)N[C@H](C(=O)NC3C(=O)NCC(=O)N[C@@H](C(C)C)C(=O)N[C@@H]([C@@H](C)CC)C(=O)N[C@@H](CCSC)C(=O)NC(=CC)C(=O)N[C@H](C(=O)N[C@@H](CCSC)C(=O)NC4CSC[C@@H](C(=O)N[C@@H](CCCCN)C(=O)O)NC(=O)CNC(=O)[C@H](CC(N)=O)NC4=O)CSC3C)[C@@H](C)CC)CSC2C)NC(=O)[C@H](CC(C)C)NC1=O` (stereo partly drawn) [rombocin A], the MIC (L. lactis MG1363 [1]) was 0,78 μg/mL, the MIC (L. monocytogenes LK132) was 25 µg/mL (≈ 10.5 µM) and the MIC [2] was 25 µg/mL (≈ 10.5 µM). For the same compound, the MIC (L. monocytogenes TT82E) was 12,5 μg/mL, the MIC (S. aureus LMG10147) was 100 µg/mL (≈ 42 µM) and the MIC [3] was 100 µg/mL (≈ 42 µM). It also gave an MIC (E. faecium LMG11423) of 100 µg/mL (≈ 42 µM), an MIC [4] of 100 µg/mL (≈ 42 µM) and an MIC [5] of 50 µg/mL (≈ 21 µM). The “binding to lipid II (effect of spotted lipid II on the inhibition halo)” value [6] was “reduction in the antimicrobial activity against L. lactis”, the “effect of added lipid II on activity (growth curves)” value [7] was “reduced its activity” and the “time to complete killing” value (L. lactis MG1363 [8]; L. lactis MG1363, 5 × 10^5 CFU/mL, CFU counting, triplicate) was 18 h. For the same compound, the “bacteriostatic or bactericidal activity” value (L. lactis MG1363 [8]; L. lactis, time-dependent killing) was “strong bactericidal activity”, the “release of intracellular potassium ions (PBFI fluorescence)” value (L. lactis [9]) was “did not have this effect” and the “membrane depolarization (DiSC3(5) fluorescence)” value (L. lactis [10]) was “significant membrane depolarization”.
